Reference: patent US20260209220A1, “SUBSTITUTED TETRAHYDROPYRROLO-PYRIDINONE COMPOUNDS AND THEIR USE IN TREATING MEDICAL CONDITIONS” (Karuna Therapeutics, Inc., priority 2022, published 2026)

Columns and labels:
[1] = system: amphetamine-evoked hyperlocomotion; test: Amphetamine-evoked hyperlocomotion in rats (open field); type: in vivo, rat; details: Sprague Dawley rats, 0.5 mg/kg amphetamine s.c., distance traveled in the 60 min after AMP
Method: Compounds may be tested for ability to impact behavior activity of rats according to the following procedures. Animals: Adult male, Sprague Dawley rats (Envigo, Indianapolis, IN, USA) are housed in a colony maintained at 23° C. with 12 h light/dark cycles (lights on at 0600 hours). All animals weigh 290-330 g at the beginning of the study and are equally divided into 5 groups (n=8 per group) and received one of the treatment conditions listed below. Behavioral Procedures: Studies are conducted in MedAssociates open field chambers (27.3 cm×27.3 cm×20.3 cm, MedAssociates, St. Albans, VT) in which movement is automatically tracked and recorded by 16 beam arrays. The administration pretreatment of the test article is determined to coincide with Tmax at the time of the amphetamine-evoked session with optimal route of administration. All groups are subcutaneously treated with 0.5 mg/kg amphetamine (AMP). The test article is tested in three dose groups with a half-log increase between doses. Risperidone (0.55 mg/kg, 30 minutes, s.c.) may be used as a positive control and is administered to group 5. To determine the role of test article on AMP-evoked hyperlocomotion, rats are placed in the open area and allowed to habituate for 30 min before being s.c. dosed with 0.5 mg/kg AMP. Locomotor data (distance traveled) is recorded as 5-minute bins throughout the 90-minute session. The dose of AMP is chosen based on the selective increase in locomotor behavior relative to stereotypes. The dose of risperidone is chosen that produced reliable effects and served as a positive control. Statistical Analysis: Spontaneous locomotion (prior to AMP administration) is calculated as the total distance traveled during the first 30 minutes of the experimental session. AMP-evoked responses are calculated as the total distance traveled during the last 60 minutes of the experimental session which commenced immediately after AMP administration. Locomotor data may be analyzed by a one-way ANOVA. When there is a significant overall ANOVA, post hoc comparisons may be made by Dunnett's test with statistical significance determined as p<0.05. […] Behavioral Procedures: Studies were conducted in MedAssociates open field chambers (27.3 cm×27.3 cm×20.3 cm, MedAssociates, St. Albans, VT) in which movement was automatically tracked and recorded by 16 beam arrays. Administration pretreatment of the test article was determined to coincide with Tmax at the time of the amphetamine-evoked session with optimal route of administration. […] Locomotor data (distance traveled) was recorded as 5-minute bins throughout the 90-minute session. […] Statistical Analysis: Spontaneous locomotion (prior to AMP administration) was calculated as the total distance traveled during the first 30 minutes of the experimental session. […]

[2] = molecular target: T1, hM4 receptors (Homo sapiens, UniProt P08173); test: Human M4 PAM PERK assay (CHO cells, TR-FRET, with EC20 acetylcholine); type: cell-based
T1 construct: expressed in transfected cells; host or cells: CHO cells
T1 sequence (P08173 1-479): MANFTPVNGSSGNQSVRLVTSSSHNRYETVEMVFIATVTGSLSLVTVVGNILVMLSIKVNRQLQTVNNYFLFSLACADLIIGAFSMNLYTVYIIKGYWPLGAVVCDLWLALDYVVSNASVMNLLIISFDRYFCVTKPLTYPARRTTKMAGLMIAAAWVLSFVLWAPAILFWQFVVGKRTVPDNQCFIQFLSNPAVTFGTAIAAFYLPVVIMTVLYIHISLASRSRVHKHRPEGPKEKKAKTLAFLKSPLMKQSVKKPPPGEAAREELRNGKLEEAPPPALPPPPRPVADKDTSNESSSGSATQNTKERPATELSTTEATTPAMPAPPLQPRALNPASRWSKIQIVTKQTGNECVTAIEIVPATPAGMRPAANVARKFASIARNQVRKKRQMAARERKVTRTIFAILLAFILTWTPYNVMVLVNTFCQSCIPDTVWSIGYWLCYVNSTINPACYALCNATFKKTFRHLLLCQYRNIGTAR
How it was run: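 CHO cells expressing human or rat M4, serum-starved 4 h, then given compound (10-point, 10 μM top, ½-log) with EC20 acetylcholine (10 nM final) for 5 min at 37 °C. Lysates assayed for phospho-ERK by TR-FRET after 2 h detection at RT.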

EC50 [2] | SMILES | Dose Amount of Compound at which rats displayed a reduction in amphetamine-evoked hyperlocomotion activity [1]
< 50 nM | Cc1c2c(n(C)c(=O)c1F)CN(C(=O)CC1CN(c3ccc(C4CC4)c(F)c3)C1)C2 [Compound I-88] | 10 mg/kg
50 to 200 nM | Cc1cc(=O)n(C)c2c1CN(C(=O)CC1CN(c3cccc(F)c3F)C1)C2 [Compound I-14] | 32 mg/kg
< 50 nM | Cc1c2c(n(C)c(=O)c1C)CN(C(=O)CC1CN(c3ccnc(C(F)(F)F)c3)C1)C2 [Compound I-42, 1,3,4-Trimethyl-6-(2-(1-(2-(trifluoromethyl)pyridin-4-yl)azetidin-3-yl)acetyl)-1,5,6,7-tetrahydro-2H-pyrrolo[3,4-b]pyridin-2-one] | 32 mg/kg
50 to 200 nM | Cc1cc(=O)n(C)c2c1CN(C(=O)CC1CN(c3cc(F)cc(C4CC4)c3)C1)C2 [Compound I-4] | 10 mg/kg
